Series [1] has as its system Plasmodium falciparum, FcM29-Cameroon strain (chloroquine-resistant). The series can be described thus: In vitro antimalarial activity, P. falciparum FcM29-Cameroon strain. Format: cell-based. The settings on record: for IC50: Plasmodium falciparum, read-out: P. falc. IC50; for activity against P. falciparum (in words): FcM29-Cameroon strain. The text has this: (§1) Detailed protocols have been reported elsewhere.

The test system of series [2] is Plasmodium falciparum, NF54 strain (chloroquine sensitive), IEF stage. Briefly: In vitro antimalarial activity, P. falciparum NF54 strain. Format: cell-based.
Excerpt: as §1

Series [3] has as its target Trypanosoma brucei farnesyltransferase (Trypanosoma brucei, UniProt Q57U08+Q580J3). The series can be described thus: Anti-farnesyltransferase assay (T. brucei). Format: biochemical.
Excerpt: as §1

Series [4] has as its target Human farnesyltransferase (Homo sapiens, UniProt P49354+P49356). Briefly: Anti-farnesyltransferase assay (human). It counts as biochemical. The settings on record: average of three assays; read-out: FTase (H) IC50.
Excerpt: as §1

For series [5], the system named is Jurkat cells. The series can be described thus: Jurkat cell cytotoxicity assay, Annexin V-FITC/PI flow cytometry. Format: cell-based, human. The settings on record: for mode of Jurkat cell death (Annexin V-FITC/PI): 100 μM, 24 h treatment, flow cytometry; for concentration at which toxicity towards Jurkat cells is apparent: 24 h. As for the experimental part:
In addition, by using propidium iodide (PI) as a probe, from the observation of treated cells having a significant loss of nuclear DNA in combination with ROS production it was concluded that both 1 and 2 were inducing apoptosis. […] For our assessment of the mechanism of cell death, we used the combination of Annexin V-FITC and PI stains to allow us to evaluate the ability of test compounds 1–6 to induce apoptosis or necrosis (or both) in Jurkat cells. After 24 h treatment in the presence of 100 μM of each test compound, cells were analyzed by flow cytometry to identify live (AnV^−/PI^−), apoptosing (AnV^+/PI^−), necrotic (AnV^−/PI^+) and late apoptotic (AnV^+/PI^+) cells.
Cells were resuspended in cRPMI at 1 × 10^6 cells/mL and 100 μL cells added to individual wells of a 96-well round bottom plate. Compounds were made up in DMSO to 10 mM for a stock solution. A ten-fold dilution series was made for each stock solution in cRPMI from 1 mM to 10 nM and 10 μL of each added to triplicate wells, for final concentrations of 100 μM to 1 nM, along with corresponding DMSO controls. The cells plus compounds were then incubated for 24 h at 37 °C. The cells were washed in ice-cold Annexin V binding buffer (200 mL PBS with 10 mM HEPES, 140 mM NaCl and 2.5 mM CaCl2). The cell pellets were labelled with 5 μL of Annexin V-FITC (BD Pharmingen) for 15 min at 4 °C. Cells were washed again with ice-cold Annexin V buffer and labelled with 10 μL of 5 μg/mL PI for 7 min at 4 °C. Cells were washed and resuspended in FACS buffer, and Annexin V/PI staining analysed using flow cytometry. Annexin V positive cells were undergoing apoptosis, while PI positive cells were necrotic. Double positive cells were dead, while double negative cells were live cells.
On the technique in general: A flow cytometer gives signals particle by particle.

Series [6] concerns Jurkat cells. Briefly: Intracellular ROS, DHR123 flow cytometry. The settings on record: top test concentration of 100 μM, 30 min. It counts as cell-based, human. As for the experimental part: In the present study, the presence of ROS in Jurkat cells was determined using dihydrorhodamine 123 (DHR123), a cell permeable probe that becomes fluorescent when oxidized to rhodamine 123 in the presence of ROS [7]. Once the cells were loaded with DHR123, they were then treated with test compounds at a range of concentrations, and the mean fluorescent intensity determined by flow cytometry.
Cells were resuspended in HBSS at 1 × 10^6 cells/mL and 100 μL cells added to individual wells of a 96-well round bottom plate. DHR123 was added to the wells for a final concentration of 500 nM per well and cells incubated for 5 min to allow uptake of DHR123. Compounds were made up in DMSO to 10 mM for a stock solution. A ten-fold dilution series was made for each stock solution in HBSS from 1 mM to 10 nM and 10 μL of each added to triplicate wells, for final concentrations of 100 μM to 1 nM, along with corresponding DMSO controls. The assay was incubated at 37 °C for 30 min, and the cells were washed and resuspended in FACS buffer (PBS with 0.1% BSA and 0.2% sodium azide). Intracellular ROS was measured by flow cytometry analysis of DHR123 uptake.

Series [7] deals with human leukemia T cell line Jurkat. Also on record: method as in PMID 15857147. The conditions noted are these: standard cell viability assay; read-out: cytotoxicity towards Jurkat cells IC50; cited from earlier work.
In series [8] the test system is Jurkat cells. Also on record: method as in PMID 15857147. The conditions noted are these: relative to untreated cells; cited from earlier work.
Another series concerns MDA-MB-435. The series can be described thus: NCI-60 five-dose in vitro cytotoxicity screening, MDA-MB-435. It counts as cell-based, human. The settings on record: NCI 5-dose testing.
Excerpt: as §1

For a further series, the system named is MALME-3M. The series can be described thus: NCI-60 five-dose in vitro cytotoxicity screening, MALME-3M. Format: cell-based, human. The settings on record: NCI 5-dose testing.
Excerpt: as §1

Another series has as its system Pf K1 strain. Also on record: method as in PMID 21958335. The conditions noted are these: read-out: antimalarial activity IC50; cited from earlier work.
Setting [9] is: FcM29-Cameroon strain (chloroquine-resistant), average of three assays.
Setting [10] is: average of three assays, read-out: FTase (T. b.) IC50.
The mark [11] stands for this setting: NF54 strain (chloroquine sensitive), IEF stage, average of two independent assays, read-out: P. falc. IC50.

Where two headings read alike, the source gives them in different places.

Chain of Trypanosoma brucei farnesyltransferase (Q580J3 entry or part of it): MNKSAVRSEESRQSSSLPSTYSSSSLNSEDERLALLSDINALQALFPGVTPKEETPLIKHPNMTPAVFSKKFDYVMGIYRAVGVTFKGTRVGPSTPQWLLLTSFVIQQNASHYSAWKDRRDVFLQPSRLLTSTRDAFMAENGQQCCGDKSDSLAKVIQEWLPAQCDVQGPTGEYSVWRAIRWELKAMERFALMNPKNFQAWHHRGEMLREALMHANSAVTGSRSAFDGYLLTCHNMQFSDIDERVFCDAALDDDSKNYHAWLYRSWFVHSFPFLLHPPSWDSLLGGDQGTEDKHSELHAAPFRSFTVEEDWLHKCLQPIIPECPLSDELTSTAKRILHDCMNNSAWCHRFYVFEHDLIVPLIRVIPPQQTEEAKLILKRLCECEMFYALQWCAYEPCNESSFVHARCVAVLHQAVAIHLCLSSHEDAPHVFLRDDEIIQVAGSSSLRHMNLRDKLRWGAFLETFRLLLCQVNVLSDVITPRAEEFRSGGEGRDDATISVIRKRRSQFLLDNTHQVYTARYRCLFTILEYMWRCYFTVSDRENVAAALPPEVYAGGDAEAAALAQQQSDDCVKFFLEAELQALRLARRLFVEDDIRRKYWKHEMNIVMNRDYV
Chain of Trypanosoma brucei farnesyltransferase (Q57U08 entry or part of it): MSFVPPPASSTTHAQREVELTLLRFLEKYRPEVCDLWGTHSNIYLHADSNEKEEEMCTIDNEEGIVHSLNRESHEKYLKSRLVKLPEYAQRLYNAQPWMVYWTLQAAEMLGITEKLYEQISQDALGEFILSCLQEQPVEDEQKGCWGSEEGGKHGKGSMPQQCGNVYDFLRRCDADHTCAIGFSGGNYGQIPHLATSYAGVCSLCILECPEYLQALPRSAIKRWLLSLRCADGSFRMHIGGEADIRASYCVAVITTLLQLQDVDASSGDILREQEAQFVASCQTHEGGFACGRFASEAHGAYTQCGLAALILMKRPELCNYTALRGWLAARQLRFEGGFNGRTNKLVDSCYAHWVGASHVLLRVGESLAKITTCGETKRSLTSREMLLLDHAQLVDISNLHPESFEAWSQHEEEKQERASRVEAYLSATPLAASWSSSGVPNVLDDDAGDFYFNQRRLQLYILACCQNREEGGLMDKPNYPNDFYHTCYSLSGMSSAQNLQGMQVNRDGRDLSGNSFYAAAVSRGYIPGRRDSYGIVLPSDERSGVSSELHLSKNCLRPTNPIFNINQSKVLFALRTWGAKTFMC

As to `CCN(CC)CCCC(C)Nc1ccnc2cc(Cl)ccc12` (centres unmarked) [Chloroquine, reference compound], the IC50 in series [1] came out at 450 nM; in [2] (NF54, read-out: P. falc. IC50), 6.3 nM.
As for `CC(C)=CCC/C(C)=C/Cc1cc(O)cc2c1OC(/C=C(\C)CCC=C(C)C)C1=C2C(=O)C2=C(C1=O)S(=O)(=O)CCN2` (centres unmarked) [Compound 1, thiaplidiaquinone A], in series [1], the “activity against P. falciparum (in words)” value is “inactive”. The IC50 in [1] (setting [9]) is above 17000 nM; in series [3] (setting [10]), 740 ± 200 nM; in series [4] it was 780 ± 170 nM; in [7], around 3000 nM. The “mode of Jurkat cell death (Annexin V-FITC/PI)” value (“mode of Jurkat cell death” below) in the series on Jurkat cells [5] was “inducing both necrosis (PI^+/AV^−) and apoptosis (PI^−/AV^+)”. Moreover, the “concentration at which toxicity towards Jurkat cells is apparent” value (from here on “concentration”) in the series with Jurkat cells [5] was around 100 µM. Moreover, the “accumulation of intracellular ROS (DHR123 fluorescence)” value (“accumulation … (DHR123 fluorescence)” below) with Jurkat cells [6] is recorded as “only modest levels of accumulation of intracellular ROS”. Besides, the “accumulation of intracellular ROS, % of cells” value in the series on Jurkat cells [8] was 97%.
Regarding `CC(C)=CCC/C(C)=C/Cc1cc2c(cc1O)C1=C(C(=O)C3=C(NCCS3(=O)=O)C1=O)C(/C=C(\C)CCC=C(C)C)O2` (centres unmarked) [Compound 2, thiaplidiaquinone B], the “activity against P. falciparum (in words)” value in series [1] was “inactive”. The IC50 in [1] (setting [9]) is above 17000 nM; in [3] (setting [10]) it was 3040 ± 300 nM; in series [4], 1220 ± 68 nM; in series [7], around 3000 nM. The “mode of Jurkat cell death” value in the series with Jurkat cells [5] is on record as “cell death almost exclusively via apoptosis”. Also, the “concentration” value with Jurkat cells [5] was around 100 µM. In the series on Jurkat cells [6], the “accumulation … (DHR123 fluorescence)” value is recorded as “only modest levels of accumulation of intracellular ROS”. Also, the “accumulation of intracellular ROS, % of cells” value with Jurkat cells [8] is reported as 93%.
For `CC(C)=CCC/C(C)=C/Cc1cc(O)cc2c1OC(/C=C(\C)CCC=C(C)C)C1=C2C(=O)C2=C(NCCS2(=O)=O)C1=O` (centres unmarked) [Compound 3], the IC50 is 4560 ± 760 nM in series [1] (setting [9]), 220 ± 34 nM in series [3] (setting [10]) and 140 ± 1.7 nM in series [4]. Moreover, the GI50 with MDA-MB-435 (Homo sapiens) turned out to be 52 nM; in the series with MALME-3M (Homo sapiens), 100 nM. Also, the LC50 in the series with MDA-MB-435 (Homo sapiens) stood at 660 nM; in the series on MALME-3M (Homo sapiens), 3400 nM. Further, the TGI came out at 180 nM with MDA-MB-435 and 600 nM in the series on MALME-3M. For the same compound, the “mode of Jurkat cell death” value in the series on Jurkat cells [5] is “cell death by necrosis”. In the series with Jurkat cells [5], the “concentration” value is around 100 µM. For the same compound, in the series with Jurkat cells [6], the “accumulation … (DHR123 fluorescence)” value is listed as “the most potent generator of intracellular ROS”.
In the case of `CC(C)=CCC/C(C)=C/Cc1cc2c(cc1O)C1=C(C(=O)C3=C(C1=O)S(=O)(=O)CCN3)C(/C=C(\C)CCC=C(C)C)O2` (centres unmarked) [Compound 4], the IC50 in series [1] (setting [9]) was found to be 4390 ± 770 nM; in series [3] (setting [10]), 98 ± 8 nM; in series [4] it was 54 ± 5 nM. In addition, the “mode of Jurkat cell death” value in the series with Jurkat cells [5] is listed as “dominantly via apoptosis”. Besides, the “concentration” value in the series with Jurkat cells [5] is around 100 µM.
For `CC(C)=CCC/C(C)=C/Cc1cc(O)cc2c1OC(/C=C(\C)CCC=C(C)C)C1=C2C(=O)C=CC1=O` (centres unmarked) [Compound 5], the IC50 is 2200 nM in [2] (setting [11]), 3900 ± 600 nM in series [3] (setting [10]) and 3700 ± 600 nM in [4]. Besides, the “mode of Jurkat cell death” value in the series on Jurkat cells [5] is on record as “dominated by late stage apoptosis (PI^+/AV^+)”.
As to `CC(C)=CCC/C(C)=C/Cc1cc2c(cc1O)C1=C(C(=O)C=CC1=O)C(/C=C(\C)CCC=C(C)C)O2` (centres unmarked) [Compound 6], the 50% inhibitory concentration (IC50) in series [2] (setting [11]) was 2300 nM; in series [3] it was 6160 ± 1400 nM; in [4] it was 1640 ± 300 nM. Further, the “mode of Jurkat cell death” value with Jurkat cells [5] is given as “dominated by late stage apoptosis (PI^+/AV^+)”.
On to `CSCC[C@H](NC(=O)c1ccc(NC[C@@H](N)CS)cc1-c1ccccc1)C(=O)O` [FTI 276, reference compound], for which the IC50 in [3] (setting [10]) was determined as 10 ± 2 nM.
For `COC1=CC(=O)C2=C(C1=O)C(/C=C(\C)CCC=C(C)C)Oc1cc(OC)c(O)c(C/C=C(\C)CCC=C(C)C)c12` (centres unmarked) [scabellone B], in the series on Pf K1 strain, the IC50 was 4800 nM.

Usually IC50 stands for the concentration that gives 50% inhibition. The term GI50 denotes the concentration giving 50% growth inhibition. Higher therefore signals lower sensitivity of the cells. One may read the LC50 as the concentration lethal to half of the exposed cells or organisms. The TGI is the concentration at which net growth stops. A high value points to lower sensitivity of the cells.

Values taken from PMC4557015, “Structure-Activity Relationships of the Bioactive Thiazinoquinone Marine Natural Products Thiaplidiaquinones A and B” (Marine Drugs, 2015).
